# Data taken from patent US11039618B2, “Metam salts and polysulfide soil treatment” (Tessenderlo Kerley, Inc, priority 2016, dated 2021).
# Legend:
# soilborne disease = conditions: about 40 gallons of metam sodium per acre (190 Kg/ha); commercial conditions; cited from earlier work
# soilborne fungi = assay: Visual observation of general fungal growth on the plates (jar test); format: cell-based; conditions: observed visually on the plates
# Description: The general impact of LSS on fungal growth was also observed visually on the plates.
# Verticillium = assay: Jar test 2016: Verticillium microsclerotia colonies in treated soil, dry soil plating on NP-10; format: cell-based, Verticillium dahliae; conditions: Metam 40 gal/acre (190 kg active/ha); 2016
# Experimental: These investigations were performed under laboratory conditions in an initial jar test. We also investigated the pathogen control efficacy of LSS treatments, at 30 gal/acre (90 pounds/acre or 101 Kg/ha of calcium polysulfide) and at 90 gal/acre (276 pounds/acre or 310 Kg/ha of calcium polysulfide), and combined Metam/LSS treatments using Sectagon® brand metam at 20 gal/acre Metam (84 pounds/acre or 94 Kg/ha of metam sodium) with 40 gal/acre LSS (122 pounds/acre or 138 Kg/ha of calcium polysulfide); and at 30 gal/acre Metam (126 pounds/acre or […] of metam sodium) with 20 gal/acre LSS (60 pounds/acre or 67 kg/ha of calcium polysulfide). […] This may be due to lower water saturation in the 2016 tests compared to the saturation in 2015 tests, which was near 100%.
# Each treatment listed in Table 1 was replicated 4 times. Verticillium levels in soil were assessed by dry incubation on semi selective media (NP-10) method. Soil collected from a Romaine lettuce field in Salinas, Calif. was used for the investigation. […]
# Experimental Setup: Seven treatments were installed in 4 replicates each. […] The equivalent of gal/acre was calculated on the assumption that on acre of soil has an average weight of 3,625,895 lbs. […] Afterwards, soil was split between the two laboratories and were assessed according to the method described.
# Verticillium levels in soil were assessed by dry incubation on semi selective media (NP-10). […]
# The quantity of Verticillium in soil was assessed by dry soil plating on NP-10 semi-selective medium. […] After that, remaining soil was gently washed off the plates and the number of Verticillium microsclerotia colonies were counted on each plate under a microscope. The number of microsclerotia colonies is used as a standard method to quantify Verticillium in soil and was extrapolated for 1 g soil.
# Results were analyzed in a one-way ANOVA (P=0.05) and a Fisher LSD Post-Hoc test. […]
# Verticillium assessments were performed parallel in two separate laboratories. […] The quantity of Verticillium in soil was assessed by dry soil plating on NP-10 semi-selective medium. […]
# Black Dot = assay: Field test near Moses Lake, Wash.: black dot colonies in soil after shank treatment; parameters: species or system Colletotrichum coccodes; conditions: single sample sites, 4 inches depth; metam 45 gal/acre; LSS 90 gal/acre; metam + LSS 30 + 30 gal/acre
# Experimental: A field test was performed in small plots in a grower's location in near Moses Lake, Wash. using commercial equipment, shanking the product 8-9 inches into the ground, in February 2016. A few treated areas were sampled a few months after treatment. This field is believed to be low in pest pressure. […] The mixture is compatible as a ground application, including using standard tanks, hoses, nozzles, and shanks. It is believed the product will also be stable when added to water to form a dilute product, due to the sodium or potassium hydroxide in metam. Therefore, alkali sulfide salts need not be added.
# Location 1 was treated with 45 gallons per acre of Sectagon®, the metam sodium solution, equivalent to 191 pounds metam sodium per acre. This is considered a standard treatment protocol. Section 2 was treated with only liquid lime sulfur, at 90 gallons per acre (276 pounds calcium polysulfide/acre). Section 3 was treated with 30 gallons per acre Sectagon® and 30 gallons per acre liquid lime sulfur (92 pounds calcium polysulfide and 127 pounds metam sodium per acre). The treatment chemicals were obtained from Tessenderlo Kerley. A sufficient time following the treatments, V. dahliae concentrations and black dot concentrations were determined at 4 inches depth and at 8 inches depth at three random sample sites in each treated plot. No controls were run, and the variability in samples were high. […]
smiles,measurement,setting,value
"CNC(=S)S [Metam, sodium methyldithiocarbamate]",reduction of certain soilborne disease,soilborne disease,~70%
same,reduction of fungal growth of soilborne fungi,soilborne fungi,~100%
same,"Microsclerotia (Verticillium) per gram of soil, ms/g, 2016",Verticillium,6.5 ms/g
same,"Black Dot, 4″",Black Dot,0 colonies per gram of soil
